Drawing on ChEMBL document CHEMBL1137027, “Stereoselective synthesis and preliminary evaluation of new D-3-heteroarylcarbonylalanines as ligands of the NMDA receptor” (Bioorg Med Chem Lett, 2004), this text covers Inhibition and IC50 for two molecules.

What is called Inhibition is the change of the read-out against control, counted positive when it falls. Higher therefore signals a response far below the control. One may read the IC50 as the midpoint of a concentration-inhibition curve. Read a high IC50 as weaker potency.

The species entered for experiment [1] is Rattus norvegicus. Kind of experiment: Percent inhibition of delayed neural death at concentration of 50 uM induced by glutamate and glycine in neocortical neurons of Wistar rat fetus. Type of experiment: functional.
Experiment [2] is filed under the species Rattus norvegicus. The experiment in a line: Percent inhibition of delayed neural death at concentration of 500 uM induced by glutamate and glycine in neocortical neurons of Wistar rat fetus. The format is functional.
Experiment [3] has as its target Glutamate NMDA receptor. The experiment in a line: Inhibition of [3H]MK-801 binding to NMDA receptor of adult Wistar rat brain cortical membranes. The format is cell membranes, Membrane.
For experiment [4], the target named is Glutamate NMDA receptor. Kind of experiment: Inhibition of [3H]MK-801 binding to NMDA receptor of adult Wistar rat brain cortical membranes: Range 50-500. Type of experiment: cell membranes, Membrane.

Turning to `N[C@H](CC(=O)c1ccccn1)C(=O)O`, the Inhibition was determined as 18.4% in the experiment filed under Rattus norvegicus [1] and 60.3% in the experiment filed under Rattus norvegicus [2]. In addition, at Glutamate NMDA receptor [3], the IC50 is ~300 µM.

`N[C@H](CC(=O)c1cccs1)C(=O)O`: the IC50 on Glutamate NMDA receptor [4] is < 500 µM.
